Experimental data from patent publication US8900600B2, “Identification, optimization and use of cryptic HLA-A24 epitopes for immunotherapy” (VAXON Biotech, priority 2009, dated 2014).

Legend:
[1] = tested on: HLA-A*2402 transgenic mice; test: CTL induction in vivo in HLA-A*2402 transgenic mice (immunogenicity, Cr51 cytotoxic assay); set-up: key to Immunogenicity: (−) means that none of the mice vaccinated with the corresponding native peptides develops a specific immune response; (+) that less to 50% of vaccinated mice responded; (++) that more that 50% responded; key to Immunogenicity (class): −: (-) means that none of the mice vaccinated with the corresponding native peptides develops a specific immune response; (+) that less to 50% of vaccinated mice responded; (++) that more that 50% responded; settings: for Immunogenicity (X/Y): X mice develop a specific response for a total of Y mice vaccinated / Immunogenicity (class): Table 7, mice vaccinated with the native or modified peptide; for Immunogenicity (class): share of mice responding; for Immunogenicity: Table 5, mice vaccinated with 100 μg native peptide in IFA, share of mice with specific immune response
Method: FIG. 1: Panels 1A-1F of FIG. 1 show immunogenicity of HLA-A*2402 cryptic peptides. HLA-A*2402 transgenic mice were vaccinated with the cryptic peptides following the described protocol and generated CTL were tested against T2-A24 targets loaded with peptide as indicated (NR non relevant peptide). Percentage of specific lysis was determined as: Lysis=(Experimental Release−Spontaneous Release)/(Maximal Release−Spontaneous Release)×100. Four CTL dilutions, corresponding to four CTL/target cells ratio were tested.
(§1) The transgenic mice used in the described experiments were obtained by crossing HLA-A24 transgenic mice previously described (Barra et al., 1993) and H2 Kb^− H2 Db^− knock out mice, transgenic for both human β2 microglobulin and CD8α chain (Perarnau et al., 1999).
Mice were injected subcutaneously with 100 μg of peptide emulsified in Incomplete Freund's Adjuvant (IFA) in the presence of 150 μg of the I-A^b restricted HBVcore128 T helper epitope (TPPAYRPPNAPIL, SEQ ID NO: 112). After 15 days, 5×10^7 spleen cells were stimulated twice in vitro with peptide (10 μM), at 6 days interval. On day 13 of culture, the bulk responder populations were tested for specific cytotoxicity against target cells expressing HLA-A*2402 and loaded with the same peptide.
(§2) Targets were labelled with 100 μCi of Cr^51 for 60 min, plated in 96-well V-bottomed plates (3×10^3 cell/well in 100 μL of RPMI 1640 medium) and, when necessary, pulsed with optimized or native peptides (1 μM) at 37° C. for 2 hours. Four dilutions of effector cells were then added in the wells and incubated at 37° C. for 4 hours. Percentage of specific lysis was determined as: Lysis=(Experimental Release−Spontaneous Release)/(Maximal Release−Spontaneous Release)×100.

[2] = tested on: HLA-A*2402 transgenic mice; test: Cross-recognition assay: CTL from mice vaccinated with optimized peptide tested on targets loaded with native peptide; format: in vivo; settings: Table 7, CTL of mice vaccinated with the optimized peptide
Method: FIG. 2: Panels 2A-2F of FIG. 2 show immunogenicity of HLA-A*2402 restricted optimized cryptic peptides. HLA-A*2402 transgenic mice were vaccinated with the optimized peptide following the described protocol and generated CTL were tested against T2-A24 targets loaded with the optimized (immunogenicity), the corresponding native (native peptide cross recognition) or an irrelevant (NR) peptide as indicated. Percentage of specific lysis was determined as: Lysis=(Experimental Release−Spontaneous Release)/(Maximal Release−Spontaneous Release)×100. Four CTL dilutions, corresponding to four CTL/target cells ratio were tested.
as §1
Mice were injected subcutaneously with 100 μg of optimized peptide emulsified in Incomplete Freund's Adjuvant (IFA) in the presence of 150 μg of the I-A^b restricted HBVcore128 T helper epitope (TPPAYRPPNAPIL, SEQ ID NO: 112). After 15 days, 5×10^7 spleen cells were stimulated firstly in vitro with the optimized peptide (10 μM), and secondly on day 6 of culture with the corresponding native peptide. On day 13, the bulk responder populations were tested for specific cytotoxicity against targets cells expressing HLA-A*2402 and loaded with the optimized, the native or an irrelevant peptide.
as §2

HLA-A*2402 = HLA-A*2402 (Homo sapiens, UniProt P04439, D101N/D140Y/D185E/E176V/E190D/F33S/G103R/G107R/I119L/I121M/I306V/K335N/L105A/L180Q/L300P/N151K/N90K/Q86E/Q94H/R106L/R138H/R89G/T104I/T345S/V100E/W191G/Y123F); test: Measurement of peptide relative affinity to HLA-A*2402 (surface expression on T2-A24 cells); format: cell-based; settings: for RA (Relative Affinity): T2-A24 cells, 16 hours at 37° C., relative to reference peptide standard A24, concentration inducing 30% of HLA-A*2402 expression
Method: Measurement of Peptide Relative Affinity to HLA-A*2402.
The protocol used has been described previously (Rohrlich et al., 2003). Briefly, T2-A24 cells were incubated at 37° C. for 16 hours with peptides concentrations ranging from 100 μM to 0.1 μM, and then stained with 0041HA monoclonal antibody (mAb)(One Lambda, Inc.) to quantify the surface expression of HLA-A*2402. For each peptide concentration, the HLA-A*2402 specific staining was calculated as the percentage of staining obtained with 100 μM of the reference peptide standard A24 (AYIDNYNKF, SEQ ID NO: 111). The relative affinity (RA) was determined as: RA=(Concentration of each peptide that induces 30% of HLA-A*2402-expression/Concentration of the reference peptide that induces 30% of HLA-A*2402 expression).

RA (Relative Affinity) (HLA-A*2402) | Binding to HLA-A*2402 (in words) (HLA-A*2402) | Sequence | Immunogenicity (X/Y): X mice develop a specific response for a total of Y mice vaccinated [1] | Immunogenicity (class) [1] | Immunogenicity in HLA-A24 transgenic mice (in words) [1] | Native peptide cross recognition (X/Y): X mice develop a specific response for a total of Y mice vaccinated [2] | Native peptide cross recognition (class) [2] | Immunogenicity [1]
 |  | RYNYLSTDL (Optimized peptide derived from cryptic peptides of SEQ ID Nos 1 to 9) [Her2/neu 300 R1L9, modified peptide] | 0/9 | − |  |  |  | 
 |  | RYLVQVQAL (Optimized peptide derived from cryptic peptides of SEQ ID Nos 1 to 9) [EphA2 502 R1] | 3/3 | ++ ((++) that more that 50% responded) | developed peptide specific CTLs |  |  | 
 |  | RYEFLWGPL (Optimized peptide derived from cryptic peptides of SEQ ID Nos 1 to 9) [MAGE 261 L9, modified peptide] | 0/9 | − |  |  |  | 
− ((−) means RA > 100) |  | PYGVLLKTH (Cryptic HLA-A2402 restricted peptide) [TERT 403, native cryptic HLA-A*2402 restricted peptide] | 0/3 | − |  | 3/15 | + ((+) that less to 50% of vaccinated mice responded) | −
 |  | RYGKGWDLL (Optimized peptide derived from cryptic peptides of SEQ ID Nos 1 to 9) [EphA2 47 R1L9] | 7/9 | ++ ((++) that more that 50% responded) | developed peptide specific CTLs |  |  | 
− ((−) means RA > 100) |  | PYDGIPARE (Cryptic HLA-A2402 restricted peptide) [Her2/neu 922, native cryptic HLA-A*2402 restricted peptide] |  |  |  |  |  | 
 |  | RYWELSNHL (Optimized peptide derived from cryptic peptides of SEQ ID Nos 1 to 9) [EphA2 817 R1L9] | 2/3 | ++ ((++) that more that 50% responded) | developed peptide specific CTLs |  |  | 
 |  | RYMRQFVAL (Optimized peptide derived from cryptic peptides of SEQ ID Nos 1 to 9) [TERT 770 R1L9] | 12/18 | ++ ((++) that more that 50% responded) | developed peptide specific CTLs |  |  | 
+ ((+) 5 < RA < 10) | binds to the HLA-A*2402 | PYGCLLDHV (Cryptic HLA-A2402 restricted peptide) [Her2/neu 802] |  |  | immunogenic |  |  | ++ ((++) that more that 50% responded)
+/− ((+/−) 10 < RA < 100) |  | PYMRQFVAH (Cryptic HLA-A2402 restricted peptide) [TERT 770, native cryptic HLA-A*2402 restricted peptide] | 0/3 | − |  | 5/18 | + ((+) that less to 50% of vaccinated mice responded) | −
− ((−) means RA > 100) |  | PYNYLSTDV (Cryptic HLA-A2402 restricted peptide) [Her2/neu 300, native cryptic HLA-A*2402 restricted peptide] | 0/3 | − |  |  |  | −
 |  | RYDGIPARL (Optimized peptide derived from cryptic peptides of SEQ ID Nos 1 to 9) [Her2/neu 922 R1L9, modified peptide] | 0/9 | − |  |  |  | 
 | strongly binds | PYVSRLLGI (Cryptic HLA-A2402 restricted peptide) [Her2/neu 780, native cryptic HLA-A*2402 restricted peptide] | 0/8 | − | non immunogenic | 3/9 | + ((+) that less to 50% of vaccinated mice responded) | −
 |  | TYLVQVQAL (Cryptic HLA-A2402 restricted peptide) [EphA2 502, native cryptic HLA-A*2402 restricted peptide] | 0/3 | − |  | 2/3 | ++ ((++) that more that 50% responded) | −
 |  | KYGVLLKTL (Optimized peptide derived from cryptic peptides of SEQ ID Nos 1 to 9) [TERT 403 K1L9] | 4/15 | + ((+) that less to 50% of vaccinated mice responded) | developed peptide specific CTLs |  |  | 
− ((−) means RA > 100) |  | RYEFLWGPR (Cryptic HLA-A2402 restricted peptide) [MAGE 261, native cryptic HLA-A*2402 restricted peptide] | 0/3 | − |  |  |  | −
 |  | RYVSRLLGI (Optimized peptide derived from cryptic peptides of SEQ ID Nos 1 to 9) [HER 780 R1] | 4/9 | + ((+) that less to 50% of vaccinated mice responded) | developed peptide specific CTLs |  |  | 
 |  | PYWELSNHE (Cryptic HLA-A2402 restricted peptide) [EphA2 817, native cryptic HLA-A*2402 restricted peptide] | 0/3 | − |  | 2/3 | ++ ((++) that more that 50% responded) | −
 |  | PYGKGWDLM (Cryptic HLA-A2402 restricted peptide) [EphA2 47, native cryptic HLA-A*2402 restricted peptide] | 0/6 | − |  | 7/9 | ++ ((++) that more that 50% responded) | −
